Source: ChEMBL document CHEMBL5029164, “JNJ-67569762, A 2-Aminotetrahydropyridine-Based Selective BACE1 Inhibitor Targeting the S3 Pocket: From Discovery to Clinical Candidate” (J Med Chem, 2021)

Assay: Fraction unbound in rat brain homogenate at 5 uM incubated for 5 hrs by HPLC-MS/MS analysis
Type: ADME, tissue-based

For `CCS(=O)(=O)[C@]1(C)CC[C@@](CF)(c2cc(NC(=O)c3cc4c(cn3)OC(F)(F)O4)ccc2F)N=C1N`, which fraction unbound at 5 h, 5 µM is on record?
The fraction unbound at 5 h, 5 µM was 0.014.
